Results on nine compounds are retold here after ChEMBL document CHEMBL1201862, “PubChem BioAssay data set” (2004).

Among the test systems are 786-0; A498; DLD-1; EKVX; IGROV-1; KM12; M14; MDA-MB-231; MDA-N; NCI-H460; RXF 393; SF-268; SK-MEL-5; SK-OV-3; SN12C; SNB-19; SNB-75; SNB-78; U-251; UACC-62.
Assay in all cases: growth of human tumour cells (NCI), 48 h

SMILES strings stand for the structures.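 96-well plates; 48 h exposure; 5 concentrations. Endpoints by linear interpolation between flanking doses. Not reached: highest tested concentration assigned. Abbreviation: GI50, concentration required for 50% inhibition of growth.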 Calls of active or inactive are those of the source. Rule as the data show it: active = GI50 up to about 1.1 µM and inactive = higher.

Regarding `CS(=O)(=O)Nc1ccc(Nc2c3ccccc3nc3ccccc23)cc1`, the GI50 with 786-0 was 3.1 µM (inactive); in the assay on A498 it was 3.21 µM (inactive); with DLD-1 it was 4.15 µM (inactive); in the assay with EKVX, 4.55 µM (inactive); in the assay on IGROV-1, 2.09 µM (inactive); with KM12, 3.13 µM (inactive). In addition, the GI50 is 3.37 µM (inactive) in the assay with M14; 3.56 µM (inactive) with MDA-MB-231; 5.94 µM (inactive) with MDA-N; 0.112 µM (active) in the assay with NCI-H460; 5.73 µM (inactive) in the assay with RXF 393; 2.78 µM (inactive) in the assay with SF-268. Besides, the GI50 in the assay with SK-MEL-5 is 1.71 µM (inactive); in the assay with SK-OV-3 it was 1.89 µM (inactive); in the assay on SN12C, 0.714 µM (active); in the assay on SNB-19, 2.03 µM (inactive); in the assay on SNB-75 it was 3.46 µM (inactive); in the assay on SNB-78 it was 7.83 µM (inactive). The GI50 in the assay on U-251 is 1.74 µM (inactive); in the assay with UACC-62, 1.34 µM (inactive).
In the case of `C=C1CC2(OC1=O)c1ccccc1CCc1ccccc12`, the GI50 in the assay with 786-0 was 1.75 µM (inactive); in the assay with A498 it was 25.8 µM (inactive); with DLD-1, 1.83 µM (inactive); with EKVX, 7.38 µM (inactive); with IGROV-1, 7.23 µM (inactive); in the assay with KM12, 3.61 µM (inactive). In addition, the GI50 in the assay on M14 is 1.97 µM (inactive); with MDA-MB-231, 9.27 µM (inactive); in the assay on MDA-N it was 1.8 µM (inactive); in the assay with NCI-H460 it was 12.5 µM (inactive); in the assay with RXF 393 it was 1.66 µM (inactive); with SF-268, 1.93 µM (inactive). Further, the GI50 in the assay on SK-MEL-5 was 13.1 µM (inactive); with SK-OV-3 it was 17.7 µM (inactive); in the assay with SN12C, 2.52 µM (inactive); with SNB-19 it was 7.62 µM (inactive); in the assay on SNB-75, 5.69 µM (inactive); with SNB-78 it was 2.18 µM (inactive). Moreover, the GI50 with U-251 is 9.12 µM (inactive); with UACC-62, 6.4 µM (inactive).
For the compound `NC(=S)NNC(=O)/C(=C/c1ccc(/C=C(\NC(=O)c2ccccc2)C(=O)NNC(N)=S)cc1)NC(=O)c1ccccc1`, the GI50 in the assay on 786-0 was > 100 µM (inactive); in the assay with A498, > 100 µM (inactive); in the assay on DLD-1, > 63.7 µM (inactive); with EKVX it was > 100 µM (inactive); with IGROV-1, > 79.3 µM (inactive); with KM12, > 100 µM (inactive). The GI50 in the assay with M14 is > 100 µM (inactive); in the assay on NCI-H460, > 100 µM (inactive); in the assay with RXF 393, > 75 µM (inactive); in the assay with SF-268, > 100 µM (inactive); in the assay with SK-MEL-5 it was 66.2 µM (inactive); with SK-OV-3, > 100 µM (inactive). Besides, the GI50 with SN12C was > 79.6 µM (inactive); in the assay on SNB-19 it was > 100 µM (inactive); with SNB-75 it was 30.4 µM (inactive); in the assay on SNB-78, 53.3 µM (inactive); in the assay with U-251 it was 85.7 µM (inactive); with UACC-62, > 100 µM (inactive).
On to `CCCCCCCC(CC(=O)NC(CO)C(=O)NC(CO)CC(C)C)OC(=O)CC(CCCCCCC)OC(=O)CC(CCCCCCC)OC1OC(C)C(O)C(OC2OC(C)C(O)C(O)C2O)C1O` (stereo not drawn), for which the GI50 in the assay on 786-0 was 14.3 µM (inactive); in the assay with A498 it was 18.7 µM (inactive); in the assay on DLD-1, 16 µM (inactive); in the assay with EKVX, 24.6 µM (inactive); in the assay with IGROV-1, 12.6 µM (inactive); in the assay with KM12, 11.7 µM (inactive). Moreover, the GI50 with M14 was 5.05 µM (inactive); in the assay on MDA-MB-231 it was 13.2 µM (inactive); with MDA-N, 6.92 µM (inactive); with NCI-H460 it was 6.73 µM (inactive); in the assay with RXF 393, 13.7 µM (inactive); with SF-268, 8.41 µM (inactive). Also, the GI50 with SK-MEL-5 was 7.83 µM (inactive); in the assay on SK-OV-3, 17.6 µM (inactive); with SN12C, 14.5 µM (inactive); in the assay with SNB-19, 12.2 µM (inactive); in the assay on SNB-75 it was 10.5 µM (inactive); in the assay on SNB-78, 20.2 µM (inactive). Moreover, the GI50 is 11.1 µM (inactive) in the assay with U-251 and 14.1 µM (inactive) with UACC-62.
In the case of `CC(C)CCC[C@@H](C)C1CCC2[C@@H]3CC=C4C[C@@H](C(=O)NCCN(C)C)CC[C@]4(C)C3CC[C@@]21C` (stereo partly drawn), the GI50 was 17.3 µM (inactive) in the assay on 786-0; 32.5 µM (inactive) in the assay with A498; 36.1 µM (inactive) in the assay on DLD-1; 47.5 µM (inactive) in the assay on EKVX; 31.1 µM (inactive) in the assay with IGROV-1; 14.9 µM (inactive) with KM12. For the same compound, the GI50 in the assay with M14 is 16.3 µM (inactive); in the assay with NCI-H460, 32.9 µM (inactive); with RXF 393 it was > 100 µM (inactive); with SF-268, 36 µM (inactive); in the assay on SK-MEL-5, > 10 µM (inactive); in the assay on SK-OV-3, > 100 µM (inactive). Also, the GI50 was 19.4 µM (inactive) with SN12C; 28.6 µM (inactive) with SNB-19; 20.4 µM (inactive) with SNB-75; > 100 µM (inactive) with SNB-78; 30 µM (inactive) with U-251; 42.4 µM (inactive) in the assay on UACC-62.
Turning to `CCCC(OCC)(OCC)OCC`, the GI50 in the assay on 786-0, in the assay on A498, in the assay with DLD-1, with EKVX, with IGROV-1 and in the assay with KM12 was > 100 µM (inactive) throughout. In addition, the GI50 with M14, in the assay on NCI-H460, with RXF 393, in the assay on SF-268, with SK-MEL-5 and with SK-OV-3 was > 100 µM (inactive) in each case. In addition, the GI50 with SN12C, in the assay with SNB-19, in the assay with SNB-75, with SNB-78, with U-251 and in the assay on UACC-62 was > 100 µM (inactive) throughout.
With `CC1=Nc2c(ccc3c2C(=O)c2ccccc2C3=O)NC(c2cccc3c2CCC3)C1` (stereo not drawn), the GI50 in the assay with 786-0 was > 100 µM (inactive); in the assay with A498, > 67.3 µM (inactive); in the assay with DLD-1, 46.1 µM (inactive); in the assay on EKVX it was > 100 µM (inactive); with IGROV-1 it was 10.3 µM (inactive); with KM12 it was > 31.9 µM (inactive). Moreover, the GI50 is > 92 µM (inactive) in the assay on M14; 47.8 µM (inactive) in the assay with NCI-H460; > 100 µM (inactive) with RXF 393; > 100 µM (inactive) in the assay on SF-268; > 100 µM (inactive) in the assay on SK-MEL-5; > 31 µM (inactive) in the assay on SK-OV-3. In addition, the GI50 in the assay with SN12C, in the assay with SNB-19, with SNB-75, in the assay on SNB-78, in the assay on U-251 and in the assay with UACC-62 was > 100 µM (inactive) in each case.
As to `C=CCOc1cc2c(cc1C(C)c1ccc(OC)cc1)OCO2` (stereo not drawn), the GI50 was 0.655 µM (active) in the assay on 786-0; 2.08 µM (inactive) in the assay on A498; 0.533 µM (active) with DLD-1; 0.372 µM (active) in the assay on KM12; 0.67 µM (active) in the assay with M14; 11.5 µM (inactive) with MDA-MB-231. Also, the GI50 in the assay on MDA-N is 0.337 µM (active); in the assay on NCI-H460, 0.409 µM (active); in the assay on RXF 393, 0.091 µM (active); in the assay on SF-268, 4.88 µM (inactive); in the assay on SK-MEL-5, 0.601 µM (active); in the assay on SK-OV-3, 0.311 µM (active). Moreover, the GI50 is 0.849 µM (active) in the assay on SN12C; 0.564 µM (active) in the assay with SNB-19; 0.176 µM (active) in the assay with SNB-75; 1.46 µM (inactive) in the assay with SNB-78; 0.447 µM (active) in the assay with U-251; 0.416 µM (active) in the assay on UACC-62.
For the compound `C[C@]12C=CC(=O)C=C1CC[C@H]1[C@@H]3C[C@@H](O)[C@](O)(C(=O)CO)[C@@]3(C)C[C@H](O)[C@@]12F` [TRIAMCINOLONE], the GI50 with 786-0, in the assay on A498, in the assay on DLD-1, with EKVX, with IGROV-1 and in the assay with KM12 was > 100 µM (inactive) each time. The GI50 in the assay with M14, with NCI-H460, in the assay with RXF 393, in the assay with SF-268, in the assay with SK-MEL-5 and in the assay with SK-OV-3 was > 100 µM (inactive) throughout. Besides, the GI50 with SN12C, in the assay with SNB-19, in the assay on SNB-75, with SNB-78, with U-251 and in the assay with UACC-62 was > 100 µM (inactive) in each case.
